Series [1] in a line: Solubility of crystalline Form I and Form II in various media. The class given is physicochemical.
The nature of series [2]: Bulk-state stability and thermal conversion of crystalline forms. The class given is physicochemical. To be noted: for chemical and physical stability in bulk state: one week when stored at 50° C., 50° C./75% RH and 80° C.
A short description of series [3]: Slurry competition studies of crystalline forms in 2-propanol. Format: physicochemical. Conditions: 2-propanol at room temperature.
Series [4] deals with dengue virus. Nature of the series: Dengue EC50 determination: PBMC infected with virus/humanized 4G2 antibody complex, plaque reduction assay using BHK cells. Format: cell-based. Conditions: M.O.I of 1, 48 hours, plaque reduction in BHK cells. The procedure: Cryopreserved PBMC (Peripheral Blood Mononuclear Cell) cells were purchased from AllCells, LLC in USA. The cells were then thawed according to manufacturer's instructions and re-suspended in RPMI medium supplemented with 1% penicillin/streptomycin solution and 10% Fetal Calf serum. The cells were then counted and viability checked (viability should be at least 80%). After centrifuging and removing the media, the cells were diluted to 1×10^7 cells/mL in RPMI medium supplemented with 1% penicillin/streptomycin. 50 μl of the cells were then dispensed into 96-well tissue culture plate resulting in 5×10^5 cells/well. Next, virus with humanized 4G2 mixture was prepared for infection. Briefly, virus (2×10^7 pfu/ml) was mixed with humanized 4G2 antibody with the final antibody concentration of 0.38 μg/ml and incubated for 30 minutes at 4° C. to assist virus/antibody complex formation. The virus-antibody complex was then added to the PBMC at multiplicity of infection (M.O.I) of 1. The mixture of cells, virus and antibody was then further incubated in the plates at 37° C. for an hour in the humidified incubator for virus attachment and infection to take place. Serial diluted compounds were then added to the final media volume of 200 μl with 2% Fetal Calf Serum (final PBMC concentration would be 2.5×10^6 cells/mL). The plates were then incubated at 37° C., 5% CO2 for another 48 hours. The extent of the infection and compound inhibition was measured by plaque reduction assay using BHK cells [RD-2004-80036]. Briefly, supernatants of BHK cells grown in 24-well tissue culture (seeded at 200,000 cells/well the night before) were removed and subjected to 200 μl of diluted supernatants derived from PBMC infection containing serial diluted compounds. After incubating it for 37° C. for 1 hour in the incubator, the supernatants were removed and BHK cells overlaid with RPMI media containing 0.8% methyl-cellulose, 0.5% DMSO, 0.05% sodium bicarbonate, 25 mM HEPES, 2% fetal bovine serum and 1% penicillin/streptomycin solution. After additional 4 days of incubation at 37° C. incubator, the monolayer of BHK cells were fixed with 4% paraformaldehyde, stained with crystal violet and plaques counted. The dose response (n=2) is calculated by Prism from Graphpad software using a mathematical curve fitting analysis called nonlinear regression with four independent parameters. Briefly, the software generates the best fit curve using the formula F(x)=((A−D)/(1+((x/C)̂B)))+D. In this formula, x represents the concentration of the compound, A is the minimum value, B represents the steepness of the curve (sometimes known as Hill slope), C is the inflection point and D is the maximum value. EC50 was estimated as the concentration of the compound which will inhibit 50% of the plaque formation. A positive control (7-deaza-2′-C-acetylene-adenosine) was used to ensure the quality of the data.
For orientation: Plaques are areas of infected cells; plaque reduction assays count them against a control.

The nature of series [5]: Liver S9 stability determination. Format: in vitro ADME. To be noted: human liver S9 fraction, 1 μM compound, 37° C., up to 120 mins, read-out: liver S9 t1/2. From the text: The liver is the main organ of metabolism and contains a high concentration of drug metabolizing enzymes. Metabolic clearance, particularly hepatic, is one of the main determinants affecting systemic drug exposure following both oral and i.v. administration. To assess the ability of the compounds of the invention to reach a systemic circulation, the hepatic S9 fraction was chosen to test for stability of the compounds. Hepatic S9 fraction was obtained following centrifugation of homogenized liver tissue at 9,000 g. The hepatic S9 fraction is composed of both microsomal and cytosolic fractions and contains all the enzymes contained in microsomes plus additional phase I and phase II cytosolic enzymes.
Stock solutions of each tested compound (100 μM) were prepared in methanol by two subsequent 1:10 dilutions from 10 mM DMSO drug solutions, the final assay concentration was 1 μM. Frozen pooled liver S9 fraction was thawed from −20° C. and diluted in phosphate buffer (with and without NADPH) which was pre-warmed at 37° C. for 10 minutes. The reaction was initiated by addition of compound. Manual sample plates were incubated on a Thermo Max Q 2000 shaker placed in a temperature controlled Sartorius Certomat H hood set at 37° C. Sequential samples were removed at designated timepoints (0, 5, 15, 30, 60 and 120 mins) and quenched with 4 volumes of ice cold acetonitrile (containing internal standard, diazepam), centrifuged and supernatants reconstituted in water (acetonitrile:water, 50:50% v/v). Samples were then analyzed by LCMS/MS or LC-UV to assess parent depletion. In vitro half-life (t1/2) is calculated based on the rate of disappearance of compound from the reaction mixture at incubation timepoints up to 2 hours.

The nature of series [6]: CCK8 cytotoxicity assay in HepG2 cells. The class given is cell-based. To be noted: human, CCK-8. The procedure:
HepG2 cells were trypsinized, washed, counted and diluted to 1.6×10^4 cells/ml in DMEM-W/O Glucose, supplemented with 10% Fetal bovine serum (FBS), 1% Penicillin/Streptomycin, 2 mM HEPES, 1 mM Sodium Pyruvate, 10 mM Galactose & 2 mM Glutamine. 25 μl of the media containing 400 cells per well were dispensed in clear 384-well tissue culture plate and incubated at room temperature for 30 minutes. The plate was then transferred and placed at 37° C., 5% CO2 humidified incubator overnight. On the next day, serial-diluted compound plates were prepared and 125 nl of compounds at various concentrations were then dispensed into the tissue culture well (200× dilution). The plates were then transferred to 37° C., 5% CO2 humidified incubator for additional 96 hours. Cytotoxicity was measured by CCK-8 assay. Briefly, CCK-8 was thawed on bench top and diluted 2.5× with the growth media. 35 ul of the pre-diluted CCK-8 was then introduced into each well and the plates were then further incubated in 37° C., 5% CO2 humidified incubator for 3 hours. The absorbance was read by Envision at 450 nm. Dose response curves were calculated as in the previous section. The CC50 is estimated as the concentration of the compound which will inhibit 50% of the signal. A positive control (puromycin) was used to ensure the quality of the data.
On the technique in general: Tetrazolium dyes change colour on reduction, which living cells bring about.

The nature of series [7]: CCK8 cytotoxicity assay in THP-1 cells. Format: cell-based. Conditions: human, CCK-8. The procedure: 4 day cytotoxicity assay using THP-1 cells: THP-1 cells grown in suspension were counted and diluted to 8×10^4 cells/ml in RPMI-1640 media supplemented with 10% fetal bovine serum (FBS) and 1% penicillin/streptomycin. 25 ul of the THP-1 containing media consisting of 2000 cells were dispensed in 384-well tissue culture plate and pre-incubated at room temperature for 30 minutes, followed by 37° C., 5% CO2 overnight in the humidified incubator. On the next day, serial-diluted compound plates were prepared and 125 nl of compounds at various concentrations were then dispensed into the tissue culture well (200× dilution). The plates were then transferred to 37° C., 5% CO2 humidified incubator for additional 96 hours. Cytotoxicity was measured by CCK-8 assay. Briefly, CCK-8 was thawed on bench top and diluted 2.5× with the growth media. 35 ul of the pre-diluted CCK-8 was then introduced into each well and the plates were then further incubated in 37° C., 5% CO2 humidified incubator for 3 hours. The absorbance was read by Envision at 450 nm. Dose response curves were calculated as in the previous section (n=2). The CC50 is estimated as the concentration of the compound which will inhibit 50% of the signal. A positive control (puromycin) was used to ensure the quality of the data.

The nature of series [8]: Stability in liver microsomes. To be noted: human, read-out: liver microsomes t1/2. The class given is in vitro ADME. (Liver microsomes are a subcellular fraction often used to study metabolism.)
Where [9] appears, read: Fasted state simulated intestinal fluid [pH 6.5].
[10] abbreviates: Fed state simulated intestinal fluid [pH 5.8].

This is an account of results in patent US20140205566A1, “CYCLIC NUCLEUOSIDE DERIVATIVES AND USES THEREOF” (NOVARTIS AG, priority 2012, published 2014).

Converted amounts (≈) assume the structure as drawn. Where two headings read alike, the source gives them in different places.

As to `CCOC(=O)[C@H](C)N[P@@]1(=O)OC[C@H]2O[C@@H](n3cnc4c(OCC)nc(N)nc43)[C@](C)(F)[C@@H]2O1` [Form I, (S)-ethyl 2-(((2R,4aR,6R,7R,7aR)-6-(2-amino-6-ethoxy-9H-purin-9-yl)-7-fluoro-7-methyl-2-oxidotetrahydro-4H-furo[3,2-d][1,3,2]dioxaphosphinin-2-yl)amino)propanoate], the Solubility in series [1] (setting [9]) was 0.632 [6.36] mg/ml; in series [1] (setting [10]), 0.665 [5.80] mg/ml; in series [1] (Simulated gastric fluid [pH 2]), 0.681 [2.11] mg/ml; in series [1] (Water) it was 0.799 [3.82] mg/ml; in series [1] (pH 1 (0.1N HCl)), 1.249 [1.39] mg/ml; in series [1] (pH 3 citrate buffer) it was 0.816 [3.04] mg/ml. Moreover, the figures for the Solubility in series [1] (pH 4.65 acetate buffer) and in series [1] (pH 6.8 phosphate buffer) were 0.687 [4.67] mg/ml and 0.794 [6.70] mg/ml, respectively. Moreover, the “chemical and physical stability in bulk state” value in series [2] was “chemically and physically stable”.

With `CCOC(=O)[C@H](C)N[P@@]1(=O)OC[C@H]2O[C@@H](n3cnc4c(OCC)nc(N)nc43)[C@](C)(F)[C@@H]2O1` [Form II, (S)-ethyl 2-(((2R,4aR,6R,7R,7aR)-6-(2-amino-6-ethoxy-9H-purin-9-yl)-7-fluoro-7-methyl-2-oxidotetrahydro-4H-furo[3,2-d][1,3,2]dioxaphosphinin-2-yl)amino)propanoate], the Solubility in series [1] (setting [9]) is 0.0888 mg/mL (≈ 182 µM); in series [1] (setting [10]), 0.0995 mg/mL (≈ 204 µM); in series [1] (Simulated gastric fluid [pH 2]), 0.150 mg/mL (≈ 307 µM); in series [1] (Water) it was 0.0676 mg/mL (≈ 138 µM); in series [1] (pH 1 (0.1N HCl)), 0.246 mg/mL (≈ 504 µM); in series [1] (pH 3 citrate buffer), 0.0740 mg/mL (≈ 152 µM). The Solubility in series [1] (pH 4.65 acetate buffer) was determined as 0.0557 mg/mL (≈ 114 µM); in series [1] (pH 6.8 phosphate buffer) it was 0.0551 mg/mL (≈ 113 µM). Further, the “chemical and physical stability in bulk state” value in series [2] is “chemically and physically stable”. Also, in series [3], the “relative thermodynamic stability (slurry competition)” value is “thermodynamically more stable than Form I and III”.

`CCOC(=O)[C@H](C)N[P@@]1(=O)OC[C@H]2O[C@@H](n3cnc4c(OCC)nc(N)nc43)[C@](C)(F)[C@@H]2O1` [Form III, (S)-ethyl 2-(((2R,4aR,6R,7R,7aR)-6-(2-amino-6-ethoxy-9H-purin-9-yl)-7-fluoro-7-methyl-2-oxidotetrahydro-4H-furo[3,2-d][1,3,2]dioxaphosphinin-2-yl)amino)propanoate]: in series [2] (heated at approximate 142° C.), the “form conversion on heating” value is reported as “converts to Form II crystalline form”.

With `CCOc1nc(N)nc2c1ncn2[C@@H]1O[C@@H]2CO[P@](=O)(NCC(=O)OC(C)C)O[C@H]2[C@@]1(C)F` [Example 8, isopropyl 2-(((2R,4aR,6R,7R,7aR)-6-(2-amino-6-ethoxy-9H-purin-9-yl)-7-fluoro-7-methyl-2-oxidotetrahydro-4H-furo[3,2-d][1,3,2]dioxaphosphinin-2-yl)amino)acetate], the concentration giving a half-maximal response (EC50) (as a rule, the concentration at which the effect is half-maximal) in series [4] was found to be 0.33 µM. For the same compound, the half-life at 1 μM in series [5] (pooled liver S9 fraction) is 57.5 min. Besides, the CC50 at 96 h in series [6] and in series [7] was over 50 µM throughout.

The compound `CCOC(=O)[C@@H](N[P@]1(=O)OC[C@H]2O[C@@H](n3cnc4c(OCC)nc(N)nc43)[C@](C)(F)[C@@H]2O1)C(C)C` [Example 11, (S)-ethyl 2-(((2S,4aR,6R,7R,7aR)-6-(2-amino-6-ethoxy-9H-purin-9-yl)-7-fluoro-7-methyl-2-oxidotetrahydro-4H-furo[3,2-d][1,3,2]dioxaphosphinin-2-yl)amino)-3-methylbutanoate] had an EC50 in series [4] of 0.23 µM. The half-life at 1 μM in series [5] (pooled liver S9 fraction) was 82 min. In addition, the 50% cytotoxic concentration (CC50) at 96 h in series [6] and in series [7] was over 50 µM in each case.

Consider `COc1nc(N)nc2c1ncn2[C@@H]1O[C@H](CO[P@@](=O)(N[C@@H](C)C(=O)OC(C)C)Oc2ccccc2)[C@@H](O)[C@@]1(C)F` [Comparative Example 4, (S)-isopropyl 2-(((S)-(((2R,3R,4R,5R)-5-(2-amino-6-methoxy-9H-purin-9-yl)-4-fluoro-3-hydroxy-4-methyltetrahydrofuran-2-yl)methoxy) (phenoxy)phosphoryl)amino)propanoate, reference compound], for which, in series [5], the half-life at 1 μM came out at 18 min. In addition, in series [8], the half-life stood at 6 min.
